Results published in US9440957B2, “Compounds and compositions for modulating EGFR Activity” (Novartis AG, priority 2012, dated 2016).
Read-outs that look alike come from different tables or passages of the source.

Columns and labels:
[1] = molecular target: human EGFR WT (NIH/3T3 cells, EGF-induced) (Homo sapiens, UniProt P00533); experiment: EGFR target modulation in engineered NIH/3T3 cell lines (phospho-EGFR Y1068 AlphaLISA), EGFR WT; assay type: cell-based; conditions: engineered NIH/3T3 cells, read-out: NIH3T3 IC50 (μM) EGFR (WT)
Sequence of human EGFR WT (NIH/3T3 cells, EGF-induced) (P00533 25-1210): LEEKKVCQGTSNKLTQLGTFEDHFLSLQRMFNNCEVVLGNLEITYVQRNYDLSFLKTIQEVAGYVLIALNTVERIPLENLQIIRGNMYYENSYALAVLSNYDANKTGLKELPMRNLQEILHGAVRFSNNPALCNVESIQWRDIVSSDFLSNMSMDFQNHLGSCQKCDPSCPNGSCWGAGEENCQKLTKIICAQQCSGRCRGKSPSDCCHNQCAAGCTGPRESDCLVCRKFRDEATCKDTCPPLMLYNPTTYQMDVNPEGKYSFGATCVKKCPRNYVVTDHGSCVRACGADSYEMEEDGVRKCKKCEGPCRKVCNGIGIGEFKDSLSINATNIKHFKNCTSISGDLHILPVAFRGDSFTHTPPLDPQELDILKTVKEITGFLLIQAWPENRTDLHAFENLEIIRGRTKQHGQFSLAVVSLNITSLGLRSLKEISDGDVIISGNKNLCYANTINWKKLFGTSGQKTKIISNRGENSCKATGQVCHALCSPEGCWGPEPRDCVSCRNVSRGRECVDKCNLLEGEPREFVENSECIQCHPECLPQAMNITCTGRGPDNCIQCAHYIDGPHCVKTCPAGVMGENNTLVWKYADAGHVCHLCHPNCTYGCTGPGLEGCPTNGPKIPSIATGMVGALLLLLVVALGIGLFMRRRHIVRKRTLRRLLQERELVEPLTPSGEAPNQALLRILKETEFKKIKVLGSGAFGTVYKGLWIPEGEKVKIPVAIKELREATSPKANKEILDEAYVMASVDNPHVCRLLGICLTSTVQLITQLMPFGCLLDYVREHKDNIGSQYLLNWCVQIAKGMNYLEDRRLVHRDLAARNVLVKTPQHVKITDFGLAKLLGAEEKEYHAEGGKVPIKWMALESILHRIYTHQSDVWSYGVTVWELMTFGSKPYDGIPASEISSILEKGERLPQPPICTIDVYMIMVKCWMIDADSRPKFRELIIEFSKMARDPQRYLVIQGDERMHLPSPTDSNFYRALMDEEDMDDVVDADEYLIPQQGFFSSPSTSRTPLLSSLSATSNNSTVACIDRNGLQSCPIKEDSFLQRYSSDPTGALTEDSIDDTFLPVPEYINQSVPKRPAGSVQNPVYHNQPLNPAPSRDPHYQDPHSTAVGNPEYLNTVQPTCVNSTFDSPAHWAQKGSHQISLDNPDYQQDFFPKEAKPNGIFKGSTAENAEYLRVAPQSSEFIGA
Method: (§1) EGFR Target Modulation in Engineered NIH/3T3 Cell Lines Tissue Culture.
(§2) The cells were harvested with 0.05% Trypsin/EDTA (Hyclone #SH30236.01), re-suspended in 5% FBS/DMEM Pen/Strep without Puromycin and plated at 9,000 cells per well in 50 μl of media in a 384-well black plate with clear bottoms (Greiner #789068G). The cells were allowed to incubate overnight in a 37° C., 5% CO2 humidified tissue culture incubator. A 12-point test compound curve was prepared by serial diluting a 10 μM stock 1:3 in DMSO in a 384-well compound plate (Greiner #789201L). The serial diluted compounds were transferred to the plate containing cells by using a 50 nl Pin Head device (Perkin Elmer) and the cells were placed back in the incubator for 3 hours. Only the EGFR WT-expressing cells were induced with 50 ng/ml EGF (Preprotech #AF-100-15) for 5 minutes before lysis. […] The plates were shaken at 4° C. for 5 minutes with foil top at maximum speed. […] The plates were sealed with a foil top and frozen at −80° C. and thawed when needed.
(§3) The frozen aliquots were thawed and briefly centrifuged. All antibodies and beads were diluted in 1× AlphaLISA HiBlock Buffer (PE #AL004C). […] Goat anti-total EGFR (R&D Systems #AF231) was added and allowed to equilibrate for 1 hour at room temperature at 1 nM final concentration.
(§4) With these parameters, the IC50's for each compound in each cell line was calculated using non-linear curve fitting analysis.

[2] = molecular target: human EGFR L858R/T790M (NIH/3T3 cells) (Homo sapiens, UniProt P00533, L858R/T790M); experiment: EGFR target modulation in engineered NIH/3T3 cell lines (phospho-EGFR Y1068 AlphaLISA), EGFR L858R/T790M; assay type: cell-based; conditions: engineered NIH/3T3 cells, read-out: NIH3T3 IC50 (μM) EGFR (L858R/T790M)
Sequence of human EGFR L858R/T790M (NIH/3T3 cells) (P00533 25-1210 T790M/L858R): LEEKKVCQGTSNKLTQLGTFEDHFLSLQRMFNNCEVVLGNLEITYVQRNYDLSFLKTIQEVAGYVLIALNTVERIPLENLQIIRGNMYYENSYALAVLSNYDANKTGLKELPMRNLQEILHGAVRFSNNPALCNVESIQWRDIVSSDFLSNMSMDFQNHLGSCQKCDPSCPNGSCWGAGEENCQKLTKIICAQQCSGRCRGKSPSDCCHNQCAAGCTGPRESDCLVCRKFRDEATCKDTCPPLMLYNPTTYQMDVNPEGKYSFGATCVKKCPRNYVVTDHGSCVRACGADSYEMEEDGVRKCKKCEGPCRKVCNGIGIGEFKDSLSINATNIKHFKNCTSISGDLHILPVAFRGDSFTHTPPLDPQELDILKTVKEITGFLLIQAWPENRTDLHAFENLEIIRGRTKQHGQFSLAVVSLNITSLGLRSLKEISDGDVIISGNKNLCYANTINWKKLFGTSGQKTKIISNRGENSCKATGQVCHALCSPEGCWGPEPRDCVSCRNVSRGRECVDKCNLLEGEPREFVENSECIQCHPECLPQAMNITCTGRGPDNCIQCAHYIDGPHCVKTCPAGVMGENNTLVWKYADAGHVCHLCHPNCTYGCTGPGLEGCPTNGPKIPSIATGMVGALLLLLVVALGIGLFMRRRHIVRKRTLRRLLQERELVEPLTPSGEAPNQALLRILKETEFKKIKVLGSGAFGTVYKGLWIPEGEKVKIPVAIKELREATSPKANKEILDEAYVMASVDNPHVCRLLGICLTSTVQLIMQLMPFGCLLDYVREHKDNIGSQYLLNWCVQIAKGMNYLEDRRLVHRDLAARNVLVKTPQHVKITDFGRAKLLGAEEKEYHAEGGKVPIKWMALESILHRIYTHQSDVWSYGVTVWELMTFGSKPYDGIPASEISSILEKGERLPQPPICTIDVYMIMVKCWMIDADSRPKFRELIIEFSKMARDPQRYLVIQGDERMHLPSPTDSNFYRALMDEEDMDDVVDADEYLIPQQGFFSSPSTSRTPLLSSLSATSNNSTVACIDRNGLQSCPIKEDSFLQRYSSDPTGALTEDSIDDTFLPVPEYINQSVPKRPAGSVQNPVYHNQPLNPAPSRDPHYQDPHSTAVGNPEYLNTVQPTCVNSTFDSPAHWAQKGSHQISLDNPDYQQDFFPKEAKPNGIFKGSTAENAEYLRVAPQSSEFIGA
Method: as §1, §2, §3, §4

EGFR(L858R/T790M) = molecular target: T1, EGFR(L858R/T790M) (Homo sapiens, UniProt P00533, L858R/T790M); experiment: EGFR biochemical assay (HTRF), IC50 determinations
T1 construct: purchased from Carna (GST-a.a. 669-1210)
T1 sequence (P00533 669-1210 T790M/L858R): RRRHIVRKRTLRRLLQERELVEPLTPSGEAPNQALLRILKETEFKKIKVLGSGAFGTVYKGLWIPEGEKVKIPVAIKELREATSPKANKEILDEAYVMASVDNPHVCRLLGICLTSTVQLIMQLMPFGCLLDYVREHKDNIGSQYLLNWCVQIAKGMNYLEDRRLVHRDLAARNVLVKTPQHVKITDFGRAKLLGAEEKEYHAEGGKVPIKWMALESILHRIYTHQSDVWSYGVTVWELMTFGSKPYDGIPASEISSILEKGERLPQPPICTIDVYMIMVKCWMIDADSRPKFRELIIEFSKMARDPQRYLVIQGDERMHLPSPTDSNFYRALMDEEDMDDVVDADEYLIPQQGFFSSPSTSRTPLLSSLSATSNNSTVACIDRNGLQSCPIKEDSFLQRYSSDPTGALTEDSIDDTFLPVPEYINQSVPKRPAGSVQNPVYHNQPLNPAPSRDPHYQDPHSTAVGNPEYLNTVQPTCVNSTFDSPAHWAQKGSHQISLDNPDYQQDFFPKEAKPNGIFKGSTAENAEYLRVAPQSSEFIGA
Method: All EGFR biochemical assays were carried out by HTRF method. […] The substrate peptide Biotin-TK-peptide was purchased from Cis-Bio. […] All reactions were carried out at room temperature in white ProxiPlate™ 384-well Plus plates (PerkinElmer) and were quenched with 5 μL of 0.2 M EDTA at 60 min. Five L of the detection reagents (2.5 ng PT66K and 0.05 μg SAXL per well) were added, the plates were incubated at room temperature for 1 h and then read in EnVision reader. […] For no-preincubation condition, the compounds were added to the assay solution containing ATP and peptide, and the reaction was initiated by addition of enzyme. For pre-incubation conditions, the compounds were added to the assay solution containing enzyme and peptide, and pre-incubated at room temperature for desired period of time, then the reaction was initiated by addition of ATP.

[3] = molecular target: human EGFR L858R (NIH/3T3 cells) (Homo sapiens, UniProt P00533, L858R); experiment: EGFR target modulation in engineered NIH/3T3 cell lines (phospho-EGFR Y1068 AlphaLISA), EGFR L858R; assay type: cell-based; conditions: engineered NIH/3T3 cells, read-out: NIH3T3 IC50 (μM) EGFR (L858R)
Sequence of human EGFR L858R (NIH/3T3 cells) (P00533 25-1210 L858R): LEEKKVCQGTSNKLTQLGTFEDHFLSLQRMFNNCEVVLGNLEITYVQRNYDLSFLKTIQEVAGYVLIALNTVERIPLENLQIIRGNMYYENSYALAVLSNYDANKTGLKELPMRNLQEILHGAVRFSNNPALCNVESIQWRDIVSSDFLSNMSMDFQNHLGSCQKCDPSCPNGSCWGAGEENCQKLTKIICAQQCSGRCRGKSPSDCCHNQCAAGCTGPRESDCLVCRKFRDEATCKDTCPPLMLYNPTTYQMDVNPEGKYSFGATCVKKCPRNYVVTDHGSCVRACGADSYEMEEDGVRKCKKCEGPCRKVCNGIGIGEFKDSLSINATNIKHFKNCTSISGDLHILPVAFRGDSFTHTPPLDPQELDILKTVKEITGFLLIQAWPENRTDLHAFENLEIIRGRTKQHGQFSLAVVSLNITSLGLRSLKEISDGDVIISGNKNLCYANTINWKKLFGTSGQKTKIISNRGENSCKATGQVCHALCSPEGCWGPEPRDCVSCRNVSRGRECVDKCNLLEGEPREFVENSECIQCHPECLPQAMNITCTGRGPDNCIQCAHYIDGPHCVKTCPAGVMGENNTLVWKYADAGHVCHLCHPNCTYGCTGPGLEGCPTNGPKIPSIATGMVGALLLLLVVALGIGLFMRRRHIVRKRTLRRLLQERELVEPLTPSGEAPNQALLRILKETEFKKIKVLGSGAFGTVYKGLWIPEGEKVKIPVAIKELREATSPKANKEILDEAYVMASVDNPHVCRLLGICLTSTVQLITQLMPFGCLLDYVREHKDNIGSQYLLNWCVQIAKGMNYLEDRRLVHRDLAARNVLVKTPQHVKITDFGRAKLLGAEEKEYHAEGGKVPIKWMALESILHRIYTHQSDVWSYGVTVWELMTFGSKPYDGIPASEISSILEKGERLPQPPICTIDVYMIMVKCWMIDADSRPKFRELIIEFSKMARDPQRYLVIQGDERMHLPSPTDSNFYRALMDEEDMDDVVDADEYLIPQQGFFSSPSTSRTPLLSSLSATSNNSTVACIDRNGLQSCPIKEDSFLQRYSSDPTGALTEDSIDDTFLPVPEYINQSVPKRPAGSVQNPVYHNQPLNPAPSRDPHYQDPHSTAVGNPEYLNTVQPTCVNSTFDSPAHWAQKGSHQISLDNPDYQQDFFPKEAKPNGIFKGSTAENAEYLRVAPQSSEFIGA
Method: as §1, §2, §3, §4

[4] = EGFR (L858R/T790M) with 90 min pre-incubation, read-out: IC50 (μM) Column B
[5] = EGFR (L858R/T790M) with no pre-incubation, read-out: IC50 (μM) Column A

SMILES | IC50 [1] | IC50 [2] | IC50 (EGFR(L858R/T790M); [4]) | IC50 (EGFR(L858R/T790M); [5]) | IC50 [3]
Cc1cc(C(=O)Nc2nc3cccc(Cl)c3n2[C@@H]2CCCCN(C(=O)/C=C/CN3CC[C@H](O)C3)C2)ccn1 [Example 3-7] | 0.89 µM | 0.021 µM | < 0.001 µM | 0.006 µM | 0.009 µM
C=C(CN1CCCCC1)C(=O)N1CCCC[C@@H](n2c(NC(=O)c3ccnnc3)nc3cccc(C)c32)C1 [Example 17-90] | 0.76 µM | 0.055 µM | 0.013 µM | 0.199 µM | 0.054 µM
Cc1cccc2nc(NC(=O)c3ccc(F)c(Cl)c3F)n(C3CCCCN(C(=O)/C=C/CN(C)C)C3)c12 (stereo not drawn) [Example 17-32] | 0.206 µM | 0.004 µM | < 0.001 µM | 0.014 µM | 0.007 µM
Cc1cccc2nc(NC(=O)c3ccnc(OC(F)(F)F)c3)n([C@@H]3CCCCN(C(=O)/C=C/CN(C)C)C3)c12 [Example 17-102] | 0.047 µM | 0.002 µM | < 0.001 µM | 0.002 µM | 0.001 µM
Cc1cccc2nc(NC(=O)c3ccnnc3)n([C@@H]3CCCCN(C(=O)C4=COCCO4)C3)c12 [Example 17-89] | 0.7 µM | 7.5 µM | 2.32 µM | 1.01 µM | 0.46 µM
C=CC(=O)N1CCCC[C@@H](n2c(NC(=O)c3ccnc(C)c3)nc3cc(CN4CC[C@H](O)C4)cc(C)c32)C1 [Example 17-146] | 0.137 µM | 0.004 µM | < 0.001 µM | 0.002 µM | 0.003 µM
Cc1cccc2nc(NC(=O)c3ncccn3)n(C3CCCCN(C(=O)/C=C/CN(C)C)C3)c12 (stereo not drawn) [Example 17-36] | > 10 µM | 2.96 µM | 0.35 µM | 10.6 µM | 3.5 µM
Cc1cccc2nc(NC(=O)c3cccc(C(F)(F)F)c3)n([C@H]3COCCN(C(=O)/C=C/CN(C)C)C3)c12 [Example 17-6] | 6 µM | 0.244 µM | 0.01 µM | 0.189 µM | 0.7 µM
Cc1cccc2nc(NC(=O)c3ccc4ccccc4c3)n(C3CCCCN(C(=O)/C=C/CN(C)C)C3)c12 (stereo not drawn) [Example 17-66] | 0.129 µM | 0.009 µM | < 0.001 µM | 0.005 µM | 0.005 µM
C=CC(=O)N1CCCC[C@@H](n2c(NC(=O)c3ccccc3)nc3cc(CN(C)CCS(C)(=O)=O)cc(C)c32)C1 [Example 17-127] | 0.099 µM | 0.001 µM | < 0.001 µM | 0.002 µM | 0.004 µM
C=CC(=O)N1CCCCC(n2c(NC(=O)c3ccccc3)nc3cccc(-c4nc(C)no4)c32)C1 (stereo not drawn) [Example 17-138] | > 10 µM | 0.067 µM | 0.009 µM | 0.147 µM | 0.45 µM
Cc1cccc2nc(NC(=O)c3ccn(C)c(=O)c3)n(C3CCCCN(C(=O)/C=C/CN(C)C)C3)c12 (stereo not drawn) [Example 17-49] | 0.33 µM | 0.027 µM | 0.001 µM | 0.029 µM | 0.006 µM
C=CC(=O)N1CCCC[C@@H](n2c(NC(=O)c3ccccc3)nc3cccc(CN(C)CCS(C)(=O)=O)c32)C1 [Example 17-133] | 1.29 µM | 0.006 µM | 0.001 µM | 0.018 µM | 0.041 µM
C=CC(=O)N1CCCCC(n2c(NC(=O)c3ccccc3)nc3cccc(C(=O)N4CCS(=O)(=O)CC4)c32)C1 (stereo not drawn) [Example 17-115] | > 10 µM | 0.165 µM | 0.013 µM | 3.5 µM | 1.6 µM
Cc1cccc2nc(NC(=O)c3cccc(Cl)c3)n(C3CCCCN(C(=O)/C=C/CN(C)C)C3)c12 (stereo not drawn) [Example 17-43] | 0.48 µM | 0.004 µM | < 0.001 µM | 0.006 µM | 0.014 µM
C=CC(=O)N1CCCC(n2c(NC(=O)c3cccc(C(F)(F)F)c3)nc3c2CCN(S(C)(=O)=O)C3)C1 (stereo not drawn) [Example 17-168] | > 2.77 µM | 0.072 µM | 0.095 µM | 1.11 µM | 0.6 µM
C=C(CN1CCCC1)C(=O)N1CCCC[C@@H](n2c(NC(=O)c3ccnnc3)nc3cccc(C)c32)C1 [Example 17-91] | 1.01 µM | 0.042 µM | 0.007 µM | 0.198 µM | 0.033 µM
Cc1cccc2nc(NC(=O)c3cnco3)n(C3CCCCN(C(=O)/C=C/CN(C)C)C3)c12 (stereo not drawn) [Example 17-5] | 0.172 µM | 0.011 µM | 0.001 µM | 0.022 µM | 0.008 µM

The remaining lines, values ahead:

IC50 [1] | IC50 [2] | IC50 (EGFR(L858R/T790M); [4]) | IC50 (EGFR(L858R/T790M); [5]) | IC50 [3] | SMILES
> 7.6 µM | 0.013 µM | 0.003 µM | 0.068 µM | 0.087 µM | C=CC(=O)N1CCC[C@@H](n2c(NC(=O)c3cccc(C(F)(F)F)c3)nc3cc(CN4CCC(F)(F)C4)ccc32)C1 [Example 17-125]
> 10 µM | 0.194 µM | 0.218 µM | 4.1 µM | 8.6 µM | C=CC(=O)N1CCCC(n2c(NC(=O)c3cccc(C(F)(F)F)c3)nc3ccncc32)C1 (stereo not drawn) [Example 17-9]
1.98 µM | 0.004 µM | 0.011 µM | 0.106 µM | 0.016 µM | C=CC(=O)N1CCCC[C@@H](n2c(NC(=O)c3cccc(C(F)(F)F)c3)nc3cccc(C(=O)OC)c32)C1 [Example 17-96]
> 10 µM | 0.037 µM | 0.009 µM | 0.39 µM | 0.34 µM | C=CS(=O)(=O)N1CCCCC(n2c(NC(=O)c3cccc(C(F)(F)F)c3)nc3cccc(C)c32)C1 (stereo not drawn) [Example 10, N-(7-methyl-1-(1-(vinylsulfonyl)azepan-3-yl)-1H-benzo[d]imidazol-2-yl)-3-(trifluoromethyl)benzamide]
> 10 µM | 0.073 µM | 0.01 µM | 0.93 µM | 0.63 µM | C=CC(=O)N1CCCCC(n2c(NC(=O)c3ccccc3)nc3cccc(C(=O)NCCC(=O)OC)c32)C1 (stereo not drawn) [Example 17-134]
> 10 µM | 0.073 µM | 0.032 µM | 0.43 µM | 0.75 µM | C/C=C/C(=O)N1CCCCC(n2c(NC(=O)c3cccc(C(F)(F)F)c3)nc3cccc(C)c32)C1 (stereo not drawn) [Example 17-20]
> 10 µM | 0.37 µM | 0.137 µM | 7 µM | 5.5 µM | C=CC(=O)N1CCCC(n2c(NC(=O)c3cccc(C(F)(F)F)c3)nc3cnccc32)C1 (stereo not drawn) [Example 17-8]
0.43 µM | 0.001 µM | < 0.001 µM | 0.006 µM | 0.008 µM | C=CC(=O)N1CCCC[C@@H](n2c(NC(=O)c3cccc(C(F)(F)F)c3)nc3ccccc32)C1 [Example 17-13]
> 10 µM | 6.3 µM | 0.041 µM | 2.59 µM | > 10 µM | C=CC(=O)N1CCC[C@@H](n2c(NC(=O)c3cccc(C(F)(F)F)c3)nc3cc(C(=O)O)ccc32)C1 [Example 18, (R)-1-(1-acryloylpiperidin-3-yl)-2-(3-(trifluoromethyl)benzamido)-1H-benzo[d]imidazole-5-carboxylic acid]
> 10 µM | 0.86 µM | 0.028 µM | 0.69 µM | 8.2 µM | C=CC(=O)N1CCC[C@@H](n2c(NC(=O)c3cccc(C(F)(F)F)c3)nc3cc(CN4C[C@@H](O)[C@H](O)C4)ccc32)C1 [Example 17-120]
> 10 µM | 0.82 µM | 0.005 µM | 0.11 µM | 3.3 µM | C=CC(=O)N1CCCCC(n2c(NC(=O)c3cccc(C(F)(F)F)c3)nc3cccc(C(=O)O)c32)C1 (stereo not drawn) [Example 20, 1-(1-acryloylazepan-3-yl)-2-(3-(trifluoromethyl)benzamido)-1H-benzo[d]imidazole-7-carboxylic acid]
2.48 µM | 0.004 µM | < 0.001 µM | 0.014 µM | 0.02 µM | C=CC(=O)N1CCCC[C@@H](n2c(NC(=O)c3cccc(C(F)(F)F)c3)nc3cccc(Cl)c32)C1 [Example 17-18]
